Assay results: patent US20070142304A1, “Diphenylazetidinone derivatives possessing chloesterol absorption inhibitory activity” (priority 2003, published 2007)

Test system: 14C-cholesterol absorption
Test: In Vivo Testing of Cholesterol Absorption Inhibitors (A)
Conditions: 5 μmol/kg by gavage, C57BL/6 female mice, procedure A
Protocol: In Vivo Testing of Cholesterol Absorption Inhibitors (A)
C57BL/6 female mice were maintained on regular chow diet and housed in individual cages to collect faeces. Mice were fasted for 3 hours and then gavaged with vehicle or compound. Half an hour later the mice were gavaged with radiolabelled cholesterol. Six hours after the ^14C-cholesterol gavage blood samples were taken via the tail and plasma prepared to determine how much cholesterol were absorbed. 24 hours after the gavage of ^14C-cholesterol the mice were bled and plasma were prepared for analysis. Faeces were collected for 24 hours to assess absorption efficiency.

Compound | inhibition of 14C-cholesterol absorption [%]
CC(C)CC(NC(=O)COc1ccc(C2C(CCC(O)c3ccc(F)cc3)C(=O)N2c2ccc(F)cc2)cc1)C(=O)NC(Cc1ccccc1)C(=O)O [Example 3, 1-(4-Fluorophenyl)-3-(R)-[3-(4-fluorophenyl)-3-hydroxypropyl]-4-(S)-{4-[N-((R)-1-{N-[1-(R)-(carboxy)-2-(phenyl)ethyl]carbamoyl}-3-methylbutyl)carbamoylmethoxy]phenyl}azetidin-2-one] | 75
O=C(COc1ccc(C2C(CCC(O)c3ccc(F)cc3)C(=O)N2c2ccc(F)cc2)cc1)NC(Cc1ccccc1)C(=O)NC(CO)C(=O)O [Example 4, 1-(4-Fluorophenyl)-3-(R)-[3-(4-fluorophenyl)-3-hydroxypropyl]-4-(S)-[4-(N-{1-(R)-[N-(1-(S)-carboxy-2-hydroxyethyl)carbamoyl]-2-phenylethyl}carbamoylmethoxy)phenyl]azetidin-2-one] | 58
